Laboratory results: patent US20110105389A1 (priority 2009, published 2011)
Where two headings read alike, the source gives them in different places.

Experiments:
[1] = Plasma protein binding (equilibrium dialysis), Method B5; type: in vitro ADME; conditions: 60 min at 37° C., typically 10 μM
Description: B5. Plasma Protein Binding
The pharmacokinetic and pharmacodynamic properties of drugs are largely a function of the reversible binding of drugs to plasma or serum proteins such as albumin and α1-acid glycoprotein. In general, only unbound drug is available for diffusion or transport across cell membranes, and for interaction at the pharmacological target. On the other hand, drugs with low plasma protein binding generally have large volumes of distribution and rapid clearance since only unbound drug is available for glomerular filtration and, in some cases, hepatic clearance. Thus, the extent of plasma protein binding can influence efficacy, distribution and elimination. The ideal range for plasma protein binding is in the range of 87-98% for most drug products.
Protein binding studies were performed using human plasma. Briefly, 96-well microplates were used to incubate various concentrations of the test article for 60 min at 37° C. A concentration of 10 μM was a typical selection to be employed in this study. Bound and unbound fractions are separated by equilibrium dialysis, where the concentration remaining in the unbound fraction is quantified by LC-MS or LC-MS-MS analysis. […].

[2] = target: T1, ghrelin receptor (HEK-GHSR1 stable cells) (Homo sapiens, UniProt Q92847); test: Ghrelin receptor inverse agonist assay (HTRF IP-one), Method B4; type: cell-based
T1 construct: expressed in transfected cells
Outline: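 HEK cells stably expressing GHSR1, seeded at 100 000 cells/well overnight, exposed to compound for 30 min at 37° C. Cells then lysed and IP1 accumulation measured by HTRF (d2 plus anti-IP1 cryptate, 1 h at room temp). Wells lacking d2 served as negative control.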

[3] = Pharmacokinetic analysis (intravenous and oral), Method B9; type: in vivo; conditions: for % F: 2 mg/mL intravenous and 8 mg/mL oral typically employed; for Tmax: individual values; for Vd: read-out: Vz
Description: B9. Pharmacokinetic Analysis
The pharmacokinetic (PK) behavior of compounds of the invention and their pharmaceutical compositions can be ascertained by methods well known to those skilled in the art and can be used to investigate the pharmacokinetic parameters (elimination half-life, total plasma clearance, etc.) for intravenous, subcutaneous and oral administration of these substances. (Wilkinson, G. R. “Pharmacokinetics: The Dynamics of Drug Absorption, Distribution, and Elimination” in Goodman & Gilman's The Pharmacological Basis of Therapeutics, Tenth Edition, Hardman, J. G.; Limbird, L. E., Eds., McGraw Hill, Columbus, Ohio, 2001, Chapter 1.) See also U.S. Pat. Nos. 7,476,653; 7,491,695; Intl. Pat. Appl. WO 2008/033328 and U.S. Patent Appl. Publ. 2008/0194672. As an example, compound 1505 has the PK profile below.
The determination of PK parameters for additional representative compounds of the invention is presented in the Examples.
A detailed analysis of the pharmacokinetic profile of representative compounds of the invention was conducted using the procedures outlined in Method B9.
A dose level of 2 mg/mL for intravenous administration and 8 mg/mL for oral administration were typically employed.

[4] = tested on: rat stomach fundus strips; test: Ex-vivo potency evaluation on the rat stomach fundus (inhibition of ghrelin-induced contractility), Method B10; conditions: EFS
Method: B10. Ex-vivo Potency Evaluation on the Rat Stomach Fundus
Fundus strips (approximately 0.4×1 cm) were cut from the stomach of adult male Wistar rats parallel to the circular muscle fibers. They were placed between two platinum ring electrodes, 1 cm apart (Radnoti, ADlnstruments, USA) in 10 ml tissue baths containing Krebs solution bubbled with 5% CO2 in O2 and maintained at 37° C. Tissues were suspended under 1.5 g resting tension. Changes of tension were measured isometrically with force transducers and recorded with a PowerLab 8/30 data acquisition system (ADlnstruments, USA). Tissues were allowed to equilibrate for 60 min during which time bath solutions were changed every 15 min.
EFS was achieved by applying 0.5 ms pulses, 5 Hz frequency, at a maximally effective voltage of 70 V. EFS was applied for 30 sec at 3 min intervals for a 30 min initial period. This initial period was separated by a […] interval with wash out of the bath solution. Then, a second period of stimulation was started. […] Responses to the agents were measured and expressed as % of the mean of three or four pre-drug responses to EFS. All compounds were dissolved at 1 mM in distilled water or MeOH, as stock solutions.
IC50 values for the inhibition of ghrelin-induced contractility by representative compounds of the invention are presented in Table 7.

CYP3A4 = CYP3A4 (Homo sapiens, UniProt P08684); test: biochemical
CYP2D6 = CYP2D6 (Homo sapiens, UniProt P10635); test: biochemical
[5] = inverse agonist at the ghrelin receptor, Method B4
[6] = Table 10b, 2 mg/mL intravenous typically employed
[7] = plasma, Oral, 8 mg/kg, read-out: Cmax

T1 sequence (Q92847 whole entry): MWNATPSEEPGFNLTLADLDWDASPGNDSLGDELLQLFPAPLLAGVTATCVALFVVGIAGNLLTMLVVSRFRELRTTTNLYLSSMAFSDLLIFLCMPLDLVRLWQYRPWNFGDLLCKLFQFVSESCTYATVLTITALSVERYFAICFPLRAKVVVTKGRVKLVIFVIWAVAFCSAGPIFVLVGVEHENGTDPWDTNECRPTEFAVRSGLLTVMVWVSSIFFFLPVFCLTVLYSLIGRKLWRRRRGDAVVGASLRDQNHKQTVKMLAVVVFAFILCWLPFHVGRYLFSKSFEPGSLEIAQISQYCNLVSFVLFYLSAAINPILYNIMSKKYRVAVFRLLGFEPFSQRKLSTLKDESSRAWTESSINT
Chain of CYP2D6 (P10635 whole entry): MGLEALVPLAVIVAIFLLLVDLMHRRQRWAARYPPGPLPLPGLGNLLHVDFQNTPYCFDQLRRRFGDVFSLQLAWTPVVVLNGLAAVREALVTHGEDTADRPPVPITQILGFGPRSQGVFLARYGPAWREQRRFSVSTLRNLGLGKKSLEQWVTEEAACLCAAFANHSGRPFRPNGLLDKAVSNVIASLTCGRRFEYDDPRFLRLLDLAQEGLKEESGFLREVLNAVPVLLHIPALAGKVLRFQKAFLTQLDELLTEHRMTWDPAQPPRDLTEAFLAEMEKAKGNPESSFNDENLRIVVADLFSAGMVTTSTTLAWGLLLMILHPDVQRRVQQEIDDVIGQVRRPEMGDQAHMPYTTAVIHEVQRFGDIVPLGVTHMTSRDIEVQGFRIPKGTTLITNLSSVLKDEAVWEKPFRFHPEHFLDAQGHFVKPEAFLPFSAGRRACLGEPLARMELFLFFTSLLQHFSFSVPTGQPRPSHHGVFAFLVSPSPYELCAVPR
Chain of CYP3A4 (P08684 whole entry): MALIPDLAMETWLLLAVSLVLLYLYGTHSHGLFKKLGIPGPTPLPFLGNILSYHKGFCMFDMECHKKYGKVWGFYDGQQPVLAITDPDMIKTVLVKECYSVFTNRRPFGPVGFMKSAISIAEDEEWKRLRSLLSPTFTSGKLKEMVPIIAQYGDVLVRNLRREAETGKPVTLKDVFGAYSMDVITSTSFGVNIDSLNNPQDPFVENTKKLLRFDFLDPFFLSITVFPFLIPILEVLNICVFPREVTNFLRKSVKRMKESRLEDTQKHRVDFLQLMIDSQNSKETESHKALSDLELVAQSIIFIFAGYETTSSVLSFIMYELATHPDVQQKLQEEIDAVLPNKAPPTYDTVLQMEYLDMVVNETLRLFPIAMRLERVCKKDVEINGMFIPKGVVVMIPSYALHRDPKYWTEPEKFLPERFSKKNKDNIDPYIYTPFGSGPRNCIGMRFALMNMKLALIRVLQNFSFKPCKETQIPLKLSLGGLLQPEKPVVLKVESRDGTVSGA

SMILES: CC(C)C1NCCOc2ccccc2C#CCNC(=O)C(Cc2c[nH]c3ccccc23)NC(=O)C(C(C)O)N(C)C1=O (stereo not drawn) [Compound 1692]
- Binding (%), Human Plasma Protein Binding [1]: 98.2%
- IC50 [2, 5]: 100 to 500 nM

SMILES: CC(C)C1NCCOc2cc(F)ccc2C#CCNC(=O)C(Cc2c[nH]c3ccccc23)NC(=O)C(C(C)O)N(C)C1=O (stereo not drawn) [Compound 1693]
- % F ([3]; Table 10b): 5 ± 2%
- Cl [3, 6]: 35 ± 18 mL/min/kg
- t1/2 [3, 6]: 0.683 ± 0.067 h
- IC50 [2, 5]: 100 to 500 nM

SMILES: CCC1CCc2ccc(F)cc2OCCNC(C2(C)CC2)C(=O)N(C)C(C(C)O)C(=O)NC(Cc2c[nH]c3ccccc23)C(=O)N1 (stereo not drawn) [Compound 1703]
- % F ([3]; Table 10b): 12 ± 6%
- Cl [3, 6]: 9 ± 6 mL/min/kg
- t1/2 [3, 6]: 2.45 ± 0.867 h
- Binding (%), Human Plasma Protein Binding [1]: 99.5%
- IC50 [2, 5]: 50 to 100 nM

SMILES: CC[C@@H]1C#Cc2ccc(F)cc2O[C@H](C)CN[C@@H](C2(C)CC2)C(=O)N(C)[C@@H](C(C)O)C(=O)N[C@H](Cc2c[nH]c3ccccc23)C(=O)N1 (stereo partly drawn) [Compound 1707]
- Cl [3, 6]: 8 ± 4 mL/min/kg
- t1/2 [3, 6]: 2.17 ± 0.433 h
- Binding (%), Human Plasma Protein Binding [1]: 99.6%
- IC50 [2, 5]: 100 to 500 nM

SMILES: CC(C)[C@@H]1NCCOc2ccccc2C#CCNC(=O)[C@@H](Cc2ccccc2)NC(=O)[C@H](C(C)O)N(C)C1=O (stereo partly drawn) [Compound 1712]
- F ([3]; Oral, 8 mg/kg): 15 ± 10%
- Tmax ([3]; Oral, 8 mg/kg): 15/15/15
- AUC(0-inf) ([3]; plasma, Intravenous, 2 mg/kg): 544 ng·h/mL
- clearance ([3]; plasma, Intravenous, 2 mg/kg): 62 ± 10 mL/min/kg
- half-life ([3]; plasma, Intravenous, 2 mg/kg): 2.3 ± 1.43 h
- Vd ([3]; plasma, Intravenous, 2 mg/kg): 13.2 ± 9.57 L/kg
- AUC(0-inf) ([3]; plasma, Oral, 8 mg/kg): 336 ng·h/mL
- Cmax [3, 7]: 352 ± 297 ng/mL
- fraction unbound at 60 min, 10 μM ([1]; human plasma): 0.024
- IC50 [4]: 3.4 nM
- IC50 [2]: 50 to 100 nM
- IC50 (CYP3A4): 5800 nM

SMILES: CC(O)[C@H]1C(=O)N[C@H](Cc2c[nH]c3ccccc23)C(=O)N[C@H](C)C#Cc2ccccc2OCCN[C@@H](C2(C)CC2)C(=O)N1C (stereo partly drawn) [Compound 1713]
- % F ([3]; Table 10b): 14 ± 9%
- Cl [3, 6]: 30 ± 1 mL/min/kg
- t1/2 [3, 6]: 1.73 ± 0.417 h
- IC50 [2, 5]: 50 to 100 nM

SMILES: CC[C@@H]1C#Cc2ccccc2O[C@H](C)CN[C@@H](C2(C)CC2)C(=O)N(C)[C@@H](C(C)O)C(=O)N[C@H](Cc2c[nH]c3ccccc23)C(=O)N1 (stereo partly drawn) [Compound 1718]
- % F ([3]; Table 10b): 17 ± 6%
- Cl [3, 6]: 5 ± 1 mL/min/kg
- t1/2 [3, 6]: 2.7 ± 0.067 h
- IC50 [2, 5]: 50 to 100 nM

SMILES: CC(O)[C@H]1C(=O)N[C@H](Cc2c[nH]c3ccccc23)C(=O)N[C@H](C)CCc2ccc(F)cc2O[C@H](C)CN[C@@H](C2(C)CC2)C(=O)N1C (stereo partly drawn) [Compound 1719]
- Cl [3, 6]: 44 ± 3 mL/min/kg
- t1/2 [3, 6]: 1.55 ± 0.183 h
- IC50 [2, 5]: 100 to 500 nM

SMILES: CC(O)[C@H]1C(=O)N[C@H](Cc2c[nH]c3ccccc23)C(=O)N[C@H](C)C#Cc2ccc(F)cc2O[C@H](C)CN[C@@H](C2(C)CC2)C(=O)N1C (stereo partly drawn) [Compound 1720]
- Cl [3, 6]: 33 ± 12 mL/min/kg
- t1/2 [3, 6]: 1.17 ± 0.25 h
- IC50 [2, 5]: 100 to 500 nM

SMILES: CC[C@@H]1C#Cc2c(F)cccc2OCCN[C@@H](C(C)C)C(=O)N(C)[C@@H](C(C)O)C(=O)N[C@H](Cc2c[nH]c3ccccc23)C(=O)N1 (stereo partly drawn) [Compound 1726]
- % F ([3]; Table 10b): 14 ± 8%
- Cl [3, 6]: 9 ± 6 mL/min/kg
- t1/2 [3, 6]: 2.85 ± 0.267 h
- Binding (%), Human Plasma Protein Binding [1]: 99.8%
- IC50 [2, 5]: 50 to 100 nM

SMILES: CC[C@@H]1CCc2ccc(F)cc2OCCN[C@@H](C2(C)CC2)C(=O)N(C)[C@@H](C(C)O)C(=O)N[C@H](Cc2ccccc2)C(=O)N1 (stereo partly drawn) [Compound 1746]
- % F ([3]; Table 10b): 59 ± 31%
- Cl [3, 6]: 12 ± 1 mL/min/kg
- t1/2 [3, 6]: 1.78 ± 0.067 h
- IC50 [2, 5]: 50 to 100 nM

SMILES: CC[C@@H]1CCc2ccc(F)cc2OCCN[C@@H](C(C)C)C(=O)N(C)[C@@H](C(C)O)C(=O)N[C@H](Cc2ccc(O)cc2)C(=O)N1 (stereo partly drawn) [Compound 1751]
- % F ([3]; Table 10b): 34 ± 19%
- Cl [3, 6]: 32 ± 5 mL/min/kg
- t1/2 [3, 6]: 0.767 ± 0.017 h
- Binding (%), Human Plasma Protein Binding [1]: 97.4%
- IC50 [2, 5]: 100 to 500 nM

SMILES: CC[C@@H]1C#Cc2ccccc2OCCN[C@@H](C(C)C)C(=O)N(C)[C@@H](C(C)O)C(=O)N[C@H](Cc2c[nH]c3ccccc23)C(=O)N1 (stereo partly drawn) [Compound 1754]
- % F ([3]; Table 10b): 39 ± 44%
- Cl [3, 6]: 8 ± 1 mL/min/kg
- t1/2 [3, 6]: 1.77 ± 0.217 h
- Binding (%), Human Plasma Protein Binding [1]: 99.4%
- IC50 [2, 5]: 50 to 100 nM

SMILES: CC[C@@H]1C#Cc2ccc(F)cc2OCCN[C@@H](C(C)C)C(=O)N(C)[C@@H](C(C)O)C(=O)N[C@H](Cc2c[nH]c3ccccc23)C(=O)N1 (stereo partly drawn) [Compound 1755]
- % F ([3]; Table 10b): 7 ± 4%
- Cl [3, 6]: 12 ± 13 mL/min/kg
- t1/2 [3, 6]: 2.05 ± 0.467 h
- Binding (%), Human Plasma Protein Binding [1]: 99.3%
- IC50 [2, 5]: 50 to 100 nM

SMILES: CC(C)[C@@H]1NCC2CCc3cccc(c3O2)CCCNC(=O)[C@@H](Cc2ccccc2)NC(=O)[C@H](C(C)O)N(C)C1=O (stereo partly drawn) [Compound 1777]
- AUCinf ([3]; Intravenous, 2 mg/kg): 369904 ± 127112 ng·min/mL
- Cl ([3]; Intravenous, 2 mg/kg): 6 ± 2 mL/min/kg
- Vz ([3]; Intravenous, 2 mg/kg): 0.882 ± 0.272 L/kg
- t1/2 ([3]; Intravenous, 2 mg/kg): 1.78 ± 0.067 h
- AUCinf ([3]; Oral, 8 mg/kg): 190433 ± 114760 ng·min/mL
- Cmax ([3]; Oral, 8 mg/kg): 1075 ± 772 ng/mL
- F ([3]; Oral, 8 mg/kg): 13 ± 8%
- Tmax ([3]; Oral, 8 mg/kg): 15/30/15/15/15/15
- Binding (%), Human Plasma Protein Binding [1]: 95.8%
- IC50 [4]: 7.8 nM
- IC50 [2, 5]: 50 to 100 nM

SMILES: CC(C)[C@@H]1NCCOc2ccccc2C2CCC(C2)NC(=O)[C@@H](Cc2c[nH]c3ccccc23)NC(=O)[C@H](C(C)O)N(C)C1=O (stereo partly drawn) [Compound 1843]
- Binding (%), Human Plasma Protein Binding [1]: 92.1%
- IC50 [4]: 2.3 nM
- IC50 [2, 5]: 10 to 50 nM

SMILES: CC(C)[C@@H]1NCCOc2cccc(F)c2C#CCNC(=O)[C@@H](Cc2ccccc2)NC(=O)[C@H](C(C)O)N(C)C1=O (stereo partly drawn) [Compound 1929]
- F ([3]; Oral, 8 mg/kg): 42 ± 51%
- Tmax ([3]; Oral, 8 mg/kg): 15/15/30
- AUC(0-inf) ([3]; plasma, Intravenous, 2 mg/kg): 1060 ng·h/mL
- clearance ([3]; plasma, Intravenous, 2 mg/kg): 32 ± 4 mL/min/kg
- half-life ([3]; plasma, Intravenous, 2 mg/kg): 2.83 ± 1.03 h
- Vd ([3]; plasma, Intravenous, 2 mg/kg): 7.99 ± 3.7 L/kg
- AUC(0-inf) ([3]; plasma, Oral, 8 mg/kg): 1790 ng·h/mL
- Cmax [3, 7]: 628 ± 766 ng/mL
- IC50 [4]: 2 nM
- IC50 [2]: 50 to 100 nM
- IC50 (CYP2D6): 25700 nM
